# From article PMC4110978 (Expert opinion on drug metabolism & toxicology, 2009)
# Columns and labels:
# rat hepatocytes = assay: Metabolic clearance in 3D perfused bioreactor; conditions: day 6, two experiments; probe incubated 24 h; disappearance by LC/MS/MS
# human hepatocytes = assay: Metabolic clearance in 3D perfused bioreactor; conditions: day 4, four experiments; probe incubated 24 h; disappearance by LC/MS/MS
compound,measurement,setting,value
Cc1ncc2n1-c1ccc(Cl)cc1C(c1ccccc1F)=NC2 [Midazolam],"Clearance values, Rat LiverChip",rat hepatocytes,"38 µL per min, per million cells"
same,"Clearance values, Human LiverChip",human hepatocytes,"13 µL per min, per million cells"
C=CCN1CC[C@]23c4c5ccc(O)c4O[C@H]2C(=O)CC[C@@]3(O)[C@H]1C5 [Naloxone],"Clearance values, Rat LiverChip",rat hepatocytes,"39 µL per min, per million cells"
same,"Clearance values, Human LiverChip",human hepatocytes,"29 µL per min, per million cells"
